In the experiment the test system is P388 leukemia ip, CD2F1 mice, survival T/C. In words: NCI In Vivo Anticancer Drug Screen. Data for tumor model P388 Leukemia (intraperitoneal) in CD2F1 (CDF1) mice. Conditions: endpoint: median survival time, higher = longer survival. In a few lines: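 Mice carrying the transplanted tumor received test compound or vehicle. Survival was recorded in each group, and the value is the treated-group measurement divided by that of the vehicle-treated control group.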

The mark [1] stands for this setting: dose: 50.0 mg/kg/injection, schedule: Q01DX005 (ip), vehicle: Klucel (hydroxypropylcellulose) (HPC).
Setting [2] is: dose: 100.0 mg/kg/injection, schedule: Q01DX005 (ip), vehicle: Klucel (hydroxypropylcellulose) (HPC).
The mark [3] stands for this setting: dose: 200.0 mg/kg/injection, schedule: Q01DX005 (ip), vehicle: Klucel (hydroxypropylcellulose) (HPC).
The mark [4] stands for this setting: dose: 100.0 mg/kg/injection, schedule: Q04DX002 (ip), vehicle: saline with Tween-80.
Where [5] appears, read: dose: 200.0 mg/kg/injection, schedule: Q04DX002 (ip), vehicle: saline with Tween-80.
The mark [6] stands for this setting: dose: 50.0 mg/kg/injection, schedule: Q01DX009 (ip), vehicle: Klucel (hydroxypropylcellulose) (HPC).
Where [7] appears, read: dose: 100.0 mg/kg/injection, schedule: Q04DX003 (ip), vehicle: Klucel (hydroxypropylcellulose) (HPC).
The mark [8] stands for this setting: dose: 200.0 mg/kg/injection, schedule: Q04DX003 (ip), vehicle: Klucel (hydroxypropylcellulose) (HPC).
[9] abbreviates: dose: 50.0 mg/kg/injection, schedule: Q01DX009 (ip), vehicle: saline with Tween-80.
Where [10] appears, read: dose: 100.0 mg/kg/injection, schedule: Q01DX009 (ip), vehicle: saline with Tween-80.
[11] abbreviates: dose: 50.0 mg/kg/injection, schedule: Q01DX009 (ip), vehicle: saline.
[12] abbreviates: dose: 100.0 mg/kg/injection, schedule: Q01DX009 (ip), vehicle: saline.
Setting [13] is: dose: 200.0 mg/kg/injection, schedule: Q01DX009 (ip), vehicle: saline.
The mark [14] stands for this setting: dose: 50.0 mg/kg/injection, schedule: Q01DX005 (ip), vehicle: saline with Tween-80.
The mark [15] stands for this setting: dose: 100.0 mg/kg/injection, schedule: Q01DX005 (ip), vehicle: saline with Tween-80.
[16] abbreviates: dose: 200.0 mg/kg/injection, schedule: Q01DX005 (ip), vehicle: saline with Tween-80.
The mark [17] stands for this setting: dose: 100.0 mg/kg/injection, schedule: Q01DX009 (ip), vehicle: Klucel (hydroxypropylcellulose) (HPC).

Several values for one entry are separate records, joined by “and”; a condition that tells them apart may be missing. Identical values can stand only once. Inconclusive results and toxic doses are left out.

Consider `CC(=O)OC1CC2C(C)(C)C(=O)C=CC2(C)C2CCC3(C)C(c4ccoc4)CC(=O)C3C12C` (stereo not given), for which the T/C (dose: 0.5 mg/kg/injection, schedule: Q01DX005 (ip), vehicle: Klucel (hydroxypropylcellulose) (HPC)) was 99 % of control; the T/C (dose: 1.0 mg/kg/injection, schedule: Q01DX005 (ip), vehicle: Klucel (hydroxypropylcellulose) (HPC)) is 100 % of control; the T/C (dose: 2.0 mg/kg/injection, schedule: Q01DX005 (ip), vehicle: Klucel (hydroxypropylcellulose) (HPC)) is 97 % of control; the T/C (dose: 4.0 mg/kg/injection, schedule: Q01DX005 (ip), vehicle: Klucel (hydroxypropylcellulose) (HPC)) was 100 % of control; the T/C (dose: 8.0 mg/kg/injection, schedule: Q01DX005 (ip), vehicle: Klucel (hydroxypropylcellulose) (HPC)) is 98 % of control.
Turning to `Cc1nnc2c3[nH]c4ccccc4c3c(Cl)nn12`, the T/C runs as follows: under setting [1], 99 % of control; under setting [2], 92 % of control; under setting [3], 98 % of control.
On to `CC(=O)/C=N/OC(=O)c1ccccc1`, for which the T/C was 104 % of control under setting [4] and 99 % of control under setting [5].
With `COc1cc2cc[n+]3c(c2cc1OC)-c1c2cc(OC)c(OC)cc2cc[n+]1CC3`, the T/C by setting is: (dose: 12.5 mg/kg/injection, schedule: Q01DX009 (ip), vehicle: saline with Tween-80) 100 % of control; (dose: 25.0 mg/kg/injection, schedule: Q01DX009 (ip), vehicle: saline with Tween-80) 97 % of control.
Consider `c1ccc2nc3c(nc2c1)[nH]c1ccccc13`, for which the T/C is, setting by setting: (dose: 6.25 mg/kg/injection, schedule: Q01DX009 (ip), vehicle: Klucel (hydroxypropylcellulose) (HPC)) 101 % of control; (dose: 12.5 mg/kg/injection, schedule: Q01DX009 (ip), vehicle: Klucel (hydroxypropylcellulose) (HPC)) 95 % of control; (dose: 25.0 mg/kg/injection, schedule: Q01DX009 (ip), vehicle: Klucel (hydroxypropylcellulose) (HPC)) 103 % of control; under setting [6], 95 % of control.
With `Nc1ccc(S(=O)(=O)CCCl)cc1`, the T/C is 96 % of control (dose: 12.5 mg/kg/injection, schedule: Q04DX003 (ip), vehicle: Klucel (hydroxypropylcellulose) (HPC)); 102 % of control (dose: 25.0 mg/kg/injection, schedule: Q04DX003 (ip), vehicle: Klucel (hydroxypropylcellulose) (HPC)); 105 % of control (dose: 50.0 mg/kg/injection, schedule: Q04DX003 (ip), vehicle: Klucel (hydroxypropylcellulose) (HPC)); 107 % of control under setting [7]; 112 % of control under setting [8].
Regarding `N=C(N)c1ccc2oc(/C=C/c3cc4ccc(C(=N)N)cc4o3)cc2c1`, under “dose: 400.0 mg/kg/injection, schedule: Q04DX003 (ip), vehicle: suspension in saline”, the T/C is 150 % of control.
As to `CC(C)(CNC(=O)C12CC3CC(CC(C3)C1)C2)NC(=O)C12CC3CC(CC(C3)C1)C2`, the T/C (dose: 12.5 mg/kg/injection, schedule: Q01DX005 (ip), vehicle: Klucel (hydroxypropylcellulose) (HPC)) is 98 % of control; the T/C (dose: 25.0 mg/kg/injection, schedule: Q01DX005 (ip), vehicle: Klucel (hydroxypropylcellulose) (HPC)) is 107 % of control; the T/C under setting [1] was 93 % of control; the T/C under setting [2] was 88 % of control.
As to `CC(O)CCC(=O)c1nc2ccccc2s1` (stereo not given), the T/C runs as follows: (dose: 60.0 mg/kg/injection, schedule: Q01DX005 (ip), vehicle: Klucel (hydroxypropylcellulose) (HPC)) 95 % of control; (dose: 120.0 mg/kg/injection, schedule: Q01DX005 (ip), vehicle: Klucel (hydroxypropylcellulose) (HPC)) 100 % of control; (dose: 240.0 mg/kg/injection, schedule: Q01DX005 (ip), vehicle: Klucel (hydroxypropylcellulose) (HPC)) 98 % of control.
For the compound `CCCC(C(CC)CN(C)C)N(C)C` (stereo not given), the T/C is, setting by setting: under setting [9], 101 % of control; under setting [10], 93 % of control.
Take `CC(C)(C)C1C/C(=C2\COC(=O)C2=O)NN1c1ccccc1` (stereo not given): the T/C under setting [11] was 92 % of control, the T/C under setting [12] is 91 % of control and the T/C under setting [13] is 91 % of control.
Regarding `CC1CCC2(C(=O)O)CCC3(C)C(=CCC4C5(C)CCC(O)C(C)(C)C5CCC43C)C2C1C` (stereo not given), the T/C is 108 % of control (dose: 22.0 mg/kg/injection, schedule: Q01DX010 (ip), vehicle: acetone) and 95 % of control (dose: 35.0 mg/kg/injection, schedule: Q01DX010 (ip), vehicle: acetone).
On to `NS(=O)(=O)c1ccc(N2CCS(=O)(=O)CC2)cc1`, for which the T/C reads like this: under setting [11], 101 % of control; under setting [12], 90 % of control; under setting [13], 97 % of control.
Take `Nc1nc(SCC(=O)O)[nH]c(=O)c1N`: the T/C is, setting by setting: under setting [14], 91 % of control; under setting [15], 104 % of control; under setting [16], 104 % of control.
Consider `C=C/C=C\CN(C)Cc1ccccc1`, for which the T/C was 99 % of control (dose: 12.5 mg/kg/injection, schedule: Q01DX005 (ip), vehicle: saline); 105 % of control (dose: 25.0 mg/kg/injection, schedule: Q01DX005 (ip), vehicle: saline); 106 % of control and 108 % of control (dose: 50.0 mg/kg/injection, schedule: Q01DX005 (ip), vehicle: saline); 101 % of control (dose: 100.0 mg/kg/injection, schedule: Q01DX005 (ip), vehicle: saline).
Consider `Cc1[nH]n(-c2ccc(S(=O)(=O)O)cc2)c(=O)c1N=Nc1ccccc1`, for which the T/C is 96 % of control (dose: 60.0 mg/kg/injection, schedule: Q01DX005 (ip), vehicle: saline with Tween-80); 100 % of control (dose: 120.0 mg/kg/injection, schedule: Q01DX005 (ip), vehicle: saline with Tween-80); 90 % of control (dose: 240.0 mg/kg/injection, schedule: Q01DX005 (ip), vehicle: saline with Tween-80).
Consider `NC(=O)c1[nH]c(N=Nc2ccccc2)nc1N`, for which the T/C is, setting by setting: under setting [7], 102 % of control; under setting [8], 102 % of control; (dose: 400.0 mg/kg/injection, schedule: Q04DX003 (ip), vehicle: Klucel (hydroxypropylcellulose) (HPC)) 103 % of control.
Consider `c1nc(Sc2ncnc3nc[nH]c23)c2[nH]cnc2n1`, for which the T/C is, setting by setting: (dose: 180.0 mg/kg/injection, schedule: Q01DX009 (ip), vehicle: Klucel (hydroxypropylcellulose) (HPC)) 100 % of control; (dose: 266.0 mg/kg/injection, schedule: Q01DX009 (ip), vehicle: Klucel (hydroxypropylcellulose) (HPC)) 100 % of control; (dose: 400.0 mg/kg/injection, schedule: Q01DX009 (ip), vehicle: Klucel (hydroxypropylcellulose) (HPC)) 100 % of control.
With `CCN(CC)c1ccc(/C=N/Nc2cc(C)nc3ccc(C4CCCCC4)cc23)cc1`, the T/C is 90 % of control under setting [14], 100 % of control under setting [15] and 118 % of control under setting [16].
Turning to `C=CC(=NC(C)(C)C)Nc1ccc(Cl)cc1`, the T/C is, setting by setting: under setting [9], 100 % of control; under setting [10], 94 % of control; (dose: 200.0 mg/kg/injection, schedule: Q01DX009 (ip), vehicle: saline with Tween-80) 97 % of control.
On to `CC(=O)Nc1c(Br)cc(C)cc1Br`, for which the T/C under setting [6] was 94 % of control; the T/C under setting [17] is 102 % of control; the T/C (dose: 200.0 mg/kg/injection, schedule: Q01DX009 (ip), vehicle: Klucel (hydroxypropylcellulose) (HPC)) is 100 % of control.
For the compound `COC(=O)CC1(C(=O)OC)C2=C(C(C(=O)C(F)F)CC2)N2CCCC21` (stereo not given), the T/C was 94 % of control (dose: 12.5 mg/kg/injection, schedule: Q01DX001 (ip), vehicle: Klucel (hydroxypropylcellulose) (HPC)); 97 % of control (dose: 25.0 mg/kg/injection, schedule: Q01DX001 (ip), vehicle: Klucel (hydroxypropylcellulose) (HPC)); 100 % of control (dose: 50.0 mg/kg/injection, schedule: Q01DX001 (ip), vehicle: Klucel (hydroxypropylcellulose) (HPC)).
Regarding `Cc1ccc(S(=O)(=O)O/N=C(/CC/C(=N\OS(=O)(=O)c2ccc(C)cc2)c2ccccc2)c2ccccc2)cc1`, the T/C was 95 % of control under setting [4]; 115 % of control under setting [5]; 96 % of control (dose: 400.0 mg/kg/injection, schedule: Q04DX002 (ip), vehicle: saline with Tween-80).
`CCCCNC(=O)C(CONC(=O)OC)NC(C)=O` (stereo not given): the T/C is 101 % of control under setting [1], 97 % of control under setting [2] and 101 % of control under setting [3].
For the compound `CCCCCC(=O)C(=O)c1ccc(O)c(C)c1O`, the T/C by setting is: under setting [6], 95 % of control; under setting [17], 89 % of control.

Values taken from PubChem BioAssay AID330 (DTP/NCI, 2004).
